Source: BindingDB's records for doi:10.1016/s0960-894x(03)00639-5 (Instituto De Química Médica (Csic), 2003)

Experiments:
[1] = molecular target: Thymidine kinase (Herpes simplex virus 1); experiment: Inhibitory concentration on phosphorylation of [methyl-3H]-dTh by HSV-1 Thymidine Kinase
[2] = molecular target: Thymidine kinase 2, mitochondrial (Homo sapiens) (UniProt O00142); experiment: Inhibitory concentration on phosphorylation of [methyl-3H]-dTh by human Thymidine Kinase 2
Thymidine kinase 2, mitochondrial (Homo sapiens), sequence (O00142 whole entry, looked up): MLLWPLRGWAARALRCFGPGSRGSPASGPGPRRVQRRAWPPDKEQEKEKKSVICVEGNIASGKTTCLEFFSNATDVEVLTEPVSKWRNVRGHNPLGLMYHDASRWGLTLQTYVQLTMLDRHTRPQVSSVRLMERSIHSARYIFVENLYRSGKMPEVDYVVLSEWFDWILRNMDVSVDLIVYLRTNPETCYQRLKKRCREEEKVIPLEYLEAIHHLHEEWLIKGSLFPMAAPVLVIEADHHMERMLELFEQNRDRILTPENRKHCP

## Cc1cn(C/C=C\CNC(=O)c2cccc(C(F)(F)F)c2)c(=O)[nH]c1=O [N-[4-(5-Methyl-2,4-dioxo-3,4-dihydro-2H-pyrimidin-1-yl)-but-2-enyl]-3-trifluoromethyl-benzamide]
[1]
  IC50: 72 µM
[2]
  IC50: 28 µM

## Cc1cn(C/C=C\CNCc2ccccc2)c(=O)[nH]c1=O [1-(4-Benzylamino-but-2-enyl)-5-methyl-1H-pyrimidine-2,4-dione]
[1]
  IC50: > 500 µM
[2]
  IC50: 57 µM

## Cc1cn(C/C=C\CN(Cc2ccccc2)Cc2ccccc2)c(=O)[nH]c1=O [1-(4-Dibenzylamino-but-2-enyl)-5-methyl-1H-pyrimidine-2,4-dione]
[2]
  IC50: 3.5 µM
